Tests used:
[1] = molecular target: T1, Heat shock factor protein 1 (Homo sapiens) (UniProt Q00613); experiment: Inhibition of HSF1 in human HeLa cells assessed as potentiation of radicicol-induced increase in cell death at 2 uM relative to radicicol alone; format: cell-based; design: scale not given: the % may be the effect or the level left
T1 sequence (whole entry): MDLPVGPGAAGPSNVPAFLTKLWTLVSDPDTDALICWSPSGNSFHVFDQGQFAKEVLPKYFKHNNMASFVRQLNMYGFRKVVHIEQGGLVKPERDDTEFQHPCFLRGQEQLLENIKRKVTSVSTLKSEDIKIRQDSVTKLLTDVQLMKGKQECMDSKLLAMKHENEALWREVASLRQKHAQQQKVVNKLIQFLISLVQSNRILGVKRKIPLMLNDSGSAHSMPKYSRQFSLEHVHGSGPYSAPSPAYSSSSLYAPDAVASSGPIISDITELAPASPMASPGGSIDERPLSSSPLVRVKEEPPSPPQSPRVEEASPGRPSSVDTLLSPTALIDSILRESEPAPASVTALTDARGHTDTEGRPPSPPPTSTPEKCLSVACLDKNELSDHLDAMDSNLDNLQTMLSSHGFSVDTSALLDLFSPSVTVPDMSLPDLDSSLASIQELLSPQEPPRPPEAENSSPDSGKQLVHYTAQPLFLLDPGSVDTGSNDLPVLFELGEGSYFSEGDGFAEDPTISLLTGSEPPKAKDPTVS

[2] = molecular target: T1, Heat shock factor protein 1 (Homo sapiens); experiment: Inhibition of HSF1 in human HCT116 cells assessed as potentiation of SM253-induced increase in cell death at 5 uM relative to SM253 alone; format: cell-based; design: scale not given: the % may be the effect or the level left; details: HCT-116
[3] = molecular target: T1, Heat shock factor protein 1 (Homo sapiens); experiment: Inhibition of HSF1 in human HCT116 cells assessed as potentiation of SM253-induced reduction in HSF1 at 5 uM relative to SM253 alone; format: cell-based; design: scale not given: the % may be the effect or the level left; details: HCT-116
[4] = molecular target: T1, Heat shock factor protein 1 (Homo sapiens); experiment: Inhibition of HSF1 in human HCT116 cells assessed as potentiation of SM253-induced increase in cell death at 50 uM relative to SM253 alone; format: cell-based; design: scale not given: the % may be the effect or the level left; details: HCT-116
[5] = molecular target: T1, Heat shock factor protein 1 (Homo sapiens); experiment: Inhibition of HSF1 in human HCT116 cells assessed as potentiation of SM253-induced reduction in HSF1 at 50 uM relative to SM253 alone; format: cell-based; design: scale not given: the % may be the effect or the level left; details: HCT-116
[6] = molecular target: T1, Heat shock factor protein 1 (Homo sapiens); experiment: Inhibition of HSF1 in human MIAPaCa2 cells assessed as potentiation of SM253-induced increase in cell death at 50 uM relative to SM253 alone; format: cell-based; design: scale not given: the % may be the effect or the level left; details: MIA PaCa-2
[7] = molecular target: T1, Heat shock factor protein 1 (Homo sapiens); experiment: Inhibition of HSF1 in human MIAPaCa2 cells assessed as potentiation of SM253-induced reduction in HSF1 at 50 uM relative to SM253 alone; format: cell-based; design: scale not given: the % may be the effect or the level left; details: MIA PaCa-2
[8] = molecular target: T1, Heat shock factor protein 1 (Homo sapiens); experiment: Inhibition of HSF1 in human HCT116 cells assessed as potentiation of SM258-induced increase in cell death at 15 uM relative to SM258 alone; format: cell-based; design: scale not given: the % may be the effect or the level left; details: HCT-116
[9] = molecular target: T1, Heat shock factor protein 1 (Homo sapiens); experiment: Inhibition of HSF1 in human HCT116 cells assessed as potentiation of SM258-induced reduction in HSF1 at 15 uM relative to SM258 alone; format: cell-based; design: scale not given: the % may be the effect or the level left; details: HCT-116
[10] = molecular target: T1, Heat shock factor protein 1 (Homo sapiens); experiment: Inhibition of HSF1 in human HCT116 cells assessed as potentiation of SM258-induced increase in cell death at 30 uM relative to SM258 alone; format: cell-based; design: scale not given: the % may be the effect or the level left; details: HCT-116
[11] = molecular target: T1, Heat shock factor protein 1 (Homo sapiens); experiment: Inhibition of HSF1 in human HCT116 cells assessed as potentiation of SM258-induced reduction in HSF1 at 30 uM relative to SM258 alone; format: cell-based; design: scale not given: the % may be the effect or the level left; details: HCT-116
[12] = Induction of cell death in human PANC1 cells at 50 uM; format: functional, PANC-1
[13] = Induction of cell death in human MIAPaCa2 cells at 50 uM; format: functional, MIA PaCa-2
[14] = Antitumor activity against human MIAPaCa2 cells xenografted in mouse assessed as reduction in tumor volume at 150 mg/kg; format: functional, MIA PaCa-2; design: scale not given: the % may be the effect or the level left
[15] = molecular target: T1, Heat shock factor protein 1 (Homo sapiens); experiment: Inhibition of HSF1 in human HL60 cells assessed as potentiation of 17-AAG-induced reduction in cologenicity at 400 uM relative to 17-AAG alone; format: cell-based; design: scale not given: the % may be the effect or the level left; details: HL-60
[16] = molecular target: T1, Heat shock factor protein 1 (Homo sapiens); experiment: Inhibition of HSF1 in human HL60 cells assessed as potentiation of 17-AAG-induced increase in apoptosis at 400 uM relative to 17-AAG alone; format: cell-based; design: scale not given: the % may be the effect or the level left; details: HL-60
[17] = molecular target: T1, Heat shock factor protein 1 (Homo sapiens); experiment: Inhibition of HSF1 in human ASB145 cells assessed as potentiation of geldanamycin-induced reduction in cell proliferation at 20 uM relative to geldanamycin alone; format: cell-based; design: scale not given: the % may be the effect or the level left
[18] = molecular target: T1, Heat shock factor protein 1 (Homo sapiens); experiment: Inhibition of HSF1 in human ASB244 cells assessed as potentiation of geldanamycin-induced reduction in cell proliferation at 20 uM relative to geldanamycin alone; format: cell-based; design: scale not given: the % may be the effect or the level left
[19] = molecular target: T1, Heat shock factor protein 1 (Homo sapiens); experiment: Inhibition of HSF1 in human ASB244 cells assessed as potentiation of geldanamycin-induced reduction in cell migration at 10 uM relative to geldanamycin alone; format: cell-based; design: scale not given: the % may be the effect or the level left
[20] = molecular target: T1, Heat shock factor protein 1 (Homo sapiens); experiment: Inhibition of HSF1 in human INA63 cells assessed as potentiation of NVP-AUY-922-induced reduction in cell proliferation at 5 nM relative to NVP-AUY-922 alone; format: cell-based; design: scale not given: the % may be the effect or the level left
[21] = molecular target: T1, Heat shock factor protein 1 (Homo sapiens); experiment: Inhibition of HSF1 in human MM.1S cells assessed as potentiation of NVP-AUY-922-induced reduction in cell proliferation at 6 nM relative to NVP-AUY-922 alone; format: cell-based; design: scale not given: the % may be the effect or the level left
[22] = molecular target: T1, Heat shock factor protein 1 (Homo sapiens); experiment: Inhibition of HSF1 in human H929 cells assessed as potentiation of 17-AAG-induced icrease in cell death at 100 nM relative to 17-AAG alone; format: cell-based; design: scale not given: the % may be the effect or the level left
[23] = molecular target: T1, Heat shock factor protein 1 (Homo sapiens); experiment: Inhibition of HSF1 in human HeLa cells assessed as potentiation of radicicol and heat-induced increase in cell death at 60 nM relative to radicicol and heat alone; format: cell-based; design: scale not given: the % may be the effect or the level left
A-375 [24] = experiment: Cytotoxicity against human A375 cells in absence of HSF1 knock down treatment; format: functional, cell-based
A2058 [25] = experiment: Cytotoxicity against human A2058 cells in absence of HSF1 knock down treatment; format: functional, cell-based
A-375 [26] = experiment: Cytotoxicity against human A375 cells in presence of HSF1 knock down treatment; format: functional, cell-based
A2058 [27] = experiment: Cytotoxicity against human A2058 cells in presence of HSF1 knock down treatment; format: functional, cell-based
[28] = molecular target: T2, Heat shock factor protein 1 (Homo sapiens, UniProt Q00613); experiment: Inhibition of HSF1 (unknown origin) assessed as reduction in HSF1--mediated HSP transcription
T2 sequence (Q00613 whole entry): T1 sequence (whole entry)

HCT-116 = experiment: Antitumor activity against human HCT116 cells xenografted in mouse assessed as reduction in tumor size at 50 mg/kg; format: functional

Work on `CCC1CN2CCc3cc(OC)c(OC)cc3C2CC1CC1NCCc2ccccc21` (centres undefined) yielded an Activity [1] of 30%, an Activity [2] of 50% and an Activity [3] of 30%. For the same compound, the Activity [4] was 77%, the Activity [5] was 60% and the Activity [6] was 64%. It also gave an Activity [7] of 55%, an Activity [8] of 77% and an Activity [9] of 50%. It also gave an Activity [10] of 95% and an Activity [11] greater than 99%.
`CCCCCCCc1ccc(C#Cc2nc(C(N)=O)n([C@@H]3O[C@H](CO)[C@@H](O)[C@H]3O)n2)cc1` gave an Activity [12] of 80%, an Activity [13] of 90% and an Activity [14] of 60%.
`O=CN1CC/C(=C/c2ccc3c(c2)OCO3)C1=O` gave an Activity [15] of 99%, an Activity [16] of 20% and an Activity [17] of 72%. The Activity [18] was 52% and the Activity [19] was 75%.
`CC(C)[C@]12O[C@H]1[C@@H]1O[C@]13[C@]1(O[C@H]1C[C@H]1C4=C(CC[C@@]13C)C(=O)OC4)[C@@H]2O` showed an Activity [20] of 45%, an Activity [21] of 35% and an Activity [22] of 40%. For the same compound, the Activity [23] was 45%.
Compound `COc1cccc(-c2cc(F)ccc2[C@H]2Cc3nc(N)nc(C)c3C(=O)N2)n1` has an IC50 (A-375 [24]) of 19 nM, an IC50 (A2058 [25]) of 12.7 nM and an IC50 (A-375 [26]) of 6 nM. The IC50 (A2058 [27]) was 5.2 nM.
`CNc1ccc([N+](=O)[O-])c(Nc2ccc3[nH]ncc3c2)n1` showed an IC50 [28] of 1200 nM and an inhibition in vivo at 50 mg/kg (HCT-116) of 50%.

Reference: ChEMBL document CHEMBL3608221, “Regulating the master regulator: Controlling heat shock factor 1 as a chemotherapy approach” (Bioorg Med Chem Lett, 2015)
